Results: PubChem BioAssay AID463204 (Broad Institute, 2010)
Activity calls are given as the source filed them.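 How the source made its calls: active means AC50 no more than ten times the top concentration tested, that is within one log above it; inconclusive means flat curve fit with activity between 30% and 70%, or invalid poor fit; inactive means AC50 beyond ten times the top tested dose.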 Residues, ends and D or L forms follow the SMILES beside them.

Tested on: S. cerevisiae Mot1-301 ts growth rescue, BacTiter-Glo ATP luminescence
Assay: restored Mot1-301 yeast growth at 38.5C – whole organism, S. cerevisiae, Mot1-301 ts mutant, luminescence, dose retest, SUMOylation pathway inhibitor project, confirmation (AID 463204);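 further: growth at restrictive 38.5 degrees C of Mot1-301 OY566 strain; actives raise luminescence by restoring growth of the ts mutant at high temperature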

| SMILES | AC50 |
| --- | --- |
| CCOc1ccccc1C(=O)N(Cc1cccs1)C1CCS(=O)(=O)C1 (centres undefined) | > 42 µM (inactive) |
| CCc1cc(/C(Cc2ccccn2)=N\O)c(O)cc1O | > 42 µM (inactive) |
| Cc1cc(C(=O)N/N=C/c2ccc3c(c2)OCO3)c2ccccc2n1 | > 42 µM (inactive) |
| O=C(Cc1ccc(Cl)cc1Cl)OCC(=O)c1ccc[nH]1 | > 42 µM (inactive) |
| CS(=O)(=O)N(CCc1ccccc1)CC(=O)NCc1cccnc1 | > 42 µM (inactive) |
| Clc1ccccc1C(c1ccccc1)(c1ccccc1)n1ccnc1 | 3.47 µM |
| CC(=O)Nc1ccc(CN2CCCC(CO)(Cc3cccc(Cl)c3)C2)cc1 (centres undefined) | > 42 µM (inactive) |
| CC(C)C[C@@H](CO)N1CCN(Cc2cccnc2)CCC1=O | > 42 µM (inactive) |
| COCCN1C(=O)/C(=C/c2cc3c(cc2Br)OCO3)NC1=S | > 42 µM (inactive) |
| O=C(CSc1nnc(CNC(=O)c2ccccc2)o1)NCc1ccco1 | > 42 µM (inactive) |
| COc1ccc(N=C2SC(C(=O)O)CC(=O)N2Cc2ccc(OC)c(OC)c2)cc1 (centres undefined) | > 42 µM (inactive) |
| CC(C)CCn1c(C(C)O)nc2ccccc21 (centres undefined) | > 42 µM (inactive) |
| CCC(C)NC(=O)CSc1nnc(-c2cc(-c3ccc(C)cc3)nc3ccccc23)n1N (centres undefined) | > 42 µM (inactive) |
| COC(=O)C1CN(C#N)N(c2ccc(Cl)cc2)C12c1ccccc1-c1ccccc12 (centres undefined) | 0.74 µM |
| CC1(OC(=O)CCc2ccccc2)C(=O)C=C2C=C(c3ccc(C#N)cc3)N(C3CCCC3)C=C2C1=O (centres undefined) | > 42 µM (inactive) |
| COc1ccc(NC(=O)c2ccccc2NC(=O)NC2CCCCC2)cc1 | > 42 µM (inactive) |
| Cc1cnc(C(=O)OCC(=O)Nc2ccc(C)c(S(=O)(=O)N(C)C)c2)cn1 | > 42 µM (inactive) |
| CCCOC(=O)c1ccc(O)c(OC)c1 | > 42 µM (inactive) |
| COC(=O)c1cc2c(s1)-c1ccc(OC)cc1CC2 | > 42 µM (inactive) |
| CN(CC(=O)NCc1cccs1)S(=O)(=O)c1cccc2nsnc12 | > 42 µM (inactive) |
| CSc1ccc(CCNC(=O)C2CCCN(S(=O)(=O)N3CCOCC3)C2)cc1 (centres undefined) | > 42 µM (inactive) |
| Cc1ccccc1-c1nc2ccc(Cl)cc2c(=O)n1O | > 42 µM (inactive) |
| O=C(CSc1nnc(CNC(=O)c2ccco2)o1)Nc1nc2ccccc2s1 | > 42 µM (inactive) |
| Cc1ccc(C(C(=O)Nc2ccc3c(c2)OCO3)N(C)C(=O)Cc2c[nH]c3ccccc23)cc1 (centres undefined) | > 42 µM (inactive) |
| Cc1ccc(NS(=O)(=O)c2c(C)[nH]c(C)c2C(=O)N2CCCCC2)c(Cl)c1 | > 42 µM (inactive) |

| SMILES | AC50 |
| --- | --- |
| CCN1CCCC1CN(Cc1cc2ccc(C)cc2[nH]c1=O)C(=S)Nc1ccc(OC)cc1OC (centres undefined) | > 42 µM (inactive) |
| OC(c1ccccc1)(C1CCCCC1)C(CN1CCOCC1)c1ccccc1 (centres undefined) | 13.9 µM |
| COCCn1c(C)cc(C(=O)CN2C(=O)NC3(CCCCCCC3)C2=O)c1C | > 42 µM (inactive) |
| S=C(Nc1ccccc1Cl)N1CCOCC1 | > 42 µM (inactive) |
| COc1cc(C(=O)NCCC2=CCCCC2)cc(OC)c1OC | > 42 µM (inactive) |
| COC(=O)c1ccc(CSc2nc3ccccc3c(=O)n2CC(C)C)o1 | > 42 µM (inactive) |
| Cc1ccc2nc(SCC(=O)Nc3cccc(S(N)(=O)=O)c3)[nH]c2c1 | > 42 µM (inactive) |
| Cc1cc(C)n(-c2nc3ccccc3nc2N2CCN(C(=O)c3ccccc3)CC2)n1 | > 42 µM (inactive) |
| O=[N+]([O-])c1cncc([N+](=O)[O-])c1Nc1ccccc1Cl | 9.62 µM |
| c1ccc(-c2csc(NC3CCCCC3)n2)cc1 | > 42 µM (inactive) |
| O=C(CSc1nnc(COc2ccccc2Cl)o1)NC(=O)NC1CCCC1 | > 42 µM (inactive) |
| COc1cccc(OC)c1C(=O)Nc1ccc2c(c1)N(S(=O)(=O)c1cccs1)CCC2 | > 42 µM (inactive) |
| Cc1[nH]oc(=O)c1N=Nc1ccccc1 | 30.6 µM |
| CCc1cc2c(NCCO)ncnc2s1 | > 42 µM (inactive) |
| NC(=O)CC(NC(=S)NCc1ccccc1)C(=O)O (centres undefined) | > 42 µM (inactive) |
| COc1ccccc1C(=O)N(NC(=O)Oc1ccccc1)C(C)(C)C | > 42 µM (inactive) |
| COc1ccc(N2CCN(CCCNC(=O)C(=O)c3c(C)[nH]c4ccccc34)CC2)cc1 | > 21 µM (inactive) |
| N#CC(C#N)=CN=c1ccn(Cc2ccc(Cl)cc2Cl)cc1 | > 42 µM (inactive) |
| Cc1n[nH]c(C)c1S(=O)(=O)N(CC(=O)NC1CCCC1)c1ccc(C(C)C)cc1 | > 21 µM (inactive) |
| c1ccc(CCCc2nc(-c3cccnc3)no2)cc1 | > 42 µM (inactive) |
| COc1ccc(NC2CCCN(C(=O)CCc3scnc3C)C2)cc1 (centres undefined) | > 42 µM (inactive) |
| COc1cccc(/C=N/NC(=O)CCn2cnc3ccccc32)c1 | > 42 µM (inactive) |
| O=c1c2c3c(sc2n2cnnc2n1-c1ccccc1)N(Cc1ccccc1)CCC3 | > 42 µM (inactive) |
| COC(=O)CCC(=O)OC1(C)C(=O)C=C2C=C(C3CC3)N(Cc3ccc4c(c3)OCO4)C=C2C1=O (centres undefined) | > 42 µM (inactive) |
| CCCCN(C)C(=O)CCC(=O)Nc1ccc2nc(N3CCN(C)CC3)cc(C)c2c1 | > 42 µM (inactive) |

| SMILES | AC50 |
| --- | --- |
| COCCNC(=O)NC(=O)CSc1nc(C)c(C)c(C)n1 | > 42 µM (inactive) |
| Oc1ccc(Br)cc1/C=N/n1c(COc2ccccc2)n[nH]c1=S | 14.2 µM |
| C=C(C)C(=O)Nc1cccnc1Oc1ccc(F)cc1F | > 42 µM (inactive) |
| N#C/C(=C\c1c(N(Cc2ccccc2)Cc2ccccc2)nc2ccccn2c1=O)C(N)=O | > 42 µM (inactive) |
| O=C(CC(c1ccccc1)c1ccccc1O)NCCN1CCOCC1 (centres undefined) | > 42 µM (inactive) |
| Cc1c(Cl)cccc1NC(=S)NCCCN(C)C | > 42 µM (inactive) |
| c1ccc2cc(Cn3ccnc3)ccc2c1 | > 42 µM (inactive) |
| CC1(C)Oc2ccc3ccc(=O)oc3c2/C(=C/Nc2ccc(O)cc2)C1=O | > 42 µM (inactive) |
| COc1ccccc1NC(=S)N(Cc1ccco1)Cc1cc2cccc(C)c2[nH]c1=O | > 42 µM (inactive) |
| CCOC(=O)C1CCN(CC(O)COCc2ccccc2)CC1 (centres undefined) | > 42 µM (inactive) |
| C=CC(=O)NC1CC2CCC1(C)C2(C)C (centres undefined) | > 42 µM (inactive) |
| O=C(OC1CCOC1=O)c1cccc(S(=O)(=O)Nc2ccc(F)cc2)c1 (centres undefined) | > 42 µM (inactive) |
| CC(C)c1cc(N2CCOCC2)n2ncc(-c3ccccc3)c2n1 | > 42 µM (inactive) |
| COc1cc(C(=O)Nc2ccc3c(c2)OCCO3)ccc1-n1cnnn1 | > 42 µM (inactive) |
| Cc1ccc(/C=C/C(=O)OCC(=O)N(CC(C)C)c2c(N)n(Cc3ccccc3)c(=O)[nH]c2=O)o1 | > 21 µM (inactive) |
| CCN(CC)C(=O)C1CCCN(c2ccc([N+](=O)[O-])cc2/C=N/NC(=O)c2cccc(Br)c2)C1 (centres undefined) | > 42 µM (inactive) |
| CC(C)(C)NC(=O)C(c1cccs1)N(Cc1cccs1)C(=O)c1ccc(CN2CCOCC2)o1 (centres undefined) | > 42 µM (inactive) |
| O=C(NCc1ccccn1)C1Nc2ccc(C(F)(F)F)cc2C2C=CCC12 (centres undefined) | > 42 µM (inactive) |
| CC(C)(C)NC(=O)CN(C(=O)CCC(=O)Nc1nccs1)c1ccc2c(c1)OCCO2 | > 42 µM (inactive) |
| O=c1cc(COc2ncnc3ccccc23)nc2sccn12 | > 42 µM (inactive) |
| O=C(O)c1cc(Oc2ccc(C(F)(F)F)cc2Cl)ccc1[N+](=O)[O-] | > 42 µM (inactive) |
| CCOC(=O)c1sc(NC(=O)C(CC)OC(=O)c2ccco2)nc1C (centres undefined) | > 42 µM (inactive) |
| Cc1ccc(C(C(=O)NCC2CCCO2)N(Cc2ccccc2F)C(=O)Cn2nnc(-c3cccs3)n2)cc1 (centres undefined) | > 42 µM (inactive) |
| CCC(C)[C@H]1COCCS(=O)(=O)N1Cc1ccc(C)cc1 (some centres undefined) | > 42 µM (inactive) |
| CCCc1ccccc1OCCNC(C)=O | > 42 µM (inactive) |

| SMILES | AC50 |
| --- | --- |
| COc1cc(C(=O)OCC(=O)NC(C)CCc2ccccc2)cc(OC)c1OC (centres undefined) | > 42 µM (inactive) |
| COC(=O)c1cccc(NC(=O)c2cccnc2)c1 | > 42 µM (inactive) |
| CCN(CC)CC(=O)Nc1ccc(Oc2ccc(NC(=O)CN(CC)CC)cc2)cc1 | > 42 µM (inactive) |
| CN(C)S(=O)(=O)c1cc(NC(=O)CSc2nn(-c3ccc(Cl)cc3)c(=S)s2)ccc1Cl | 31.1 µM |
| CC(=O)c1cccc(NC(=O)CN(c2cccc(F)c2)S(C)(=O)=O)c1 | > 42 µM (inactive) |
| CC(=O)c1c(Nc2cccc(F)c2)oc(C)cc1=O | > 42 µM (inactive) |
| O=c1c2ccccc2c2ccccc2c(=O)n1-c1ccccc1 | > 42 µM (inactive) |
| CCCCCC(=O)NNC1=NCC(Cc2cccc(Cl)c2)S1 (centres undefined) | > 42 µM (inactive) |
| CC1Cc2ccccc2N1C(=O)CNc1cccc(S(=O)(=O)N2CCCC2)c1 (centres undefined) | > 42 µM (inactive) |
| O=C(CSc1ccc(Br)cc1)Nc1ccccc1N1CCOCC1 | > 42 µM (inactive) |
| COc1ccc(OC)c(CCNC(=O)c2ccc3c(c2)N(Cc2ccc(F)cc2)CCS3)c1 | > 42 µM (inactive) |
| N#C/C(=C\Nc1ccc2c(c1)OCCO2)c1nc2ccccc2[nH]1 | > 42 µM (inactive) |
| O=C1N=C(N2CCN(c3ccccc3)CC2)SC1Cc1ccccc1 (centres undefined) | > 42 µM (inactive) |
| CCOc1ccc(NC(=O)CNc2ccc(C)cc2Cl)cc1 | > 42 µM (inactive) |
| C[C@]12CC[C@H]3C(=CCc4cc(O)ccc43)[C@@H]1CCC2=O | > 42 µM (inactive) |
| O=C(CSc1nnc(-c2ccc(Br)cc2)o1)Nc1cccc2ccccc12 | > 42 µM (inactive) |
| COc1ccc(N(C(=O)c2ccncc2)S(=O)(=O)c2ccc(F)cc2)cc1 | > 42 µM (inactive) |
| CCCC(O)(c1ccc(Br)cc1)C(CN1CCOCC1)c1ccc(Cl)cc1 (centres undefined) | 5.13 µM |
| O=C(Nc1cccc(C(=O)Nc2ccc(F)cc2F)c1)c1ccccc1 | > 42 µM (inactive) |
| COc1ccc(N(CC(=O)NCc2ccc(C)cc2)S(=O)(=O)c2c(C)nn(C)c2C)cc1 | > 42 µM (inactive) |
| CN(C)S(=O)(=O)c1ccc(C(=O)/C=C/c2cccnc2)cc1 | > 42 µM (inactive) |
| CC(=O)NC(CC(C)C)C(=O)NC(CO)C(=O)NC(CCC(=O)O)C(=O)NC(C)C(=O)NC(CC(C)C)C(N)=O (centres undefined) (Ac-LSEAL-NH2; configuration not given here) | > 42 µM (inactive) |
| Cc1cc(NC(=O)CCC(=O)N(c2cccnc2)C(C(=O)NC2CCCC2)c2ccccc2)no1 (centres undefined) | > 42 µM (inactive) |
| COc1ccc2c(Cl)c(C(=O)NN3CCN(C)CC3)sc2c1 | > 42 µM (inactive) |
